We go through 9 compounds from article PMC4541799 (Journal of ethnopharmacology, 2015).

In data set [1] the test system is SCC2095 (oral squamous cell carcinoma cell line). Put plainly: Anti-proliferation MTT assay in SCC2095 cell line. It counts as cell-based, human. For orientation: Tetrazolium dyes change colour on reduction, which living cells bring about.
Data set [2] concerns Caco-2 cell monolayer. Put plainly: Transport study in Caco-2 cell culture model. Type of data set: in vitro ADME, human. To be noted: translated from Caco-2 permeability; ref Artursson & Karlsson, 1991. A general note: Passage across Caco-2 layers is used to estimate intestinal permeability.
In data set [3] the test system is SCC2095 cells. Put plainly: Cellular uptake / intracellular accumulation in SCC2095 cells. As to conditions: SCC2095 cells incubated with GS409, at different incubation time (2 or 4 hours). Type of data set: in vitro ADME, human.
[4] abbreviates: SCC2095 cell line, MTT, 48 hours incubation.

Structures are written as SMILES. ≈ marks a conversion by molar mass, not a printed value.

One may read the IC50 as the midpoint of a concentration-inhibition curve. The low end stands for inhibition by little substance, the high end for a need for much substance. `O=c1[nH]cc(F)c(=O)[nH]1` [5-Fu (positive control), reference compound] returned an IC50 in data set [1] (setting [4]) of 28.61 µg/mL (≈ 220 µM). Same read-out and setting: to `CC1(C)O[C@H]2CC(=O)OC[C@@]23C1=C(O)C(=O)[C@]1(C)[C@@H]3CC[C@@]2(C)[C@H](c3ccoc3)OC(=O)[C@H]3O[C@]321` [Evodol, evodol] belongs >100 µg/mL. Take `CC1=C2C(=O)O[C@@H](c3ccoc3)[C@]2(C)CCC1` [Fraxinellone, fraxinellone]: 28.6 µg/mL (≈ 123 µM) corresponded to half-maximal inhibition in data set [1] (Homo sapiens, 48 h) (IC50). For the same compound, the “absorption in the human intestine following oral administration” value in data set [2] is “more than 70%”. In addition, the “intracellular accumulation among the 9 components” value in data set [3] was “relatively high”. In the case of `CC1(C)O[C@H]2CC(=O)OC[C@]23[C@H]2CC[C@@]4(C)[C@H](c5ccoc5)OC(=O)[C@H]5O[C@]54[C@]2(C)C(=O)C[C@@H]13` [Limonin, limonin], the IC50 in data set [1] (Homo sapiens, 48 h) is > 100 µg/mL. Compound `Oc1ccc2c(c1)OC[C@H]1c3cc4c(cc3O[C@@H]21)OCO4` [Maackiain, maackiain] displayed a half-inhibitory concentration (IC50) in data set [1] (Homo sapiens, 48 h) of 86.3 µg/mL (≈ 304 µM). In data set [3], the “intracellular accumulation among the 9 components” value is reported as “relatively high”. Turning to `O=C1CCC[C@@H]2[C@H]3CCCN4CCC[C@@H](CN12)[C@@H]34` [Matrine, matrine], the IC50 in data set [1] (Homo sapiens, 48 h) is > 100 µg/mL.

Regarding `CC1(C)OC(=O)C=C[C@]2(C)[C@H]3CC[C@@]4(C)[C@H](c5ccoc5)OC(=O)[C@H]5O[C@]54[C@]3(C)C(=O)C[C@@H]12` [Obacunone, obacunone], in data set [1] (Homo sapiens, 48 h), the IC50 was > 100 µg/mL. As to `CC1(C)O[C@H]2CC(=O)OC[C@]23[C@H]2CC[C@@]4(C)[C@H](c5ccoc5)OC(=O)[C@H]5O[C@]54[C@]2(C)[C@@H](O)C(=O)[C@@H]13` [Rutaevine, rutaevine], the IC50 in data set [1] (setting [4]) is >100 µg/mL. Take `OC[C@H]1O[C@@H](Oc2ccc3c(c2)OC[C@H]2c4cc5c(cc4O[C@@H]32)OCO5)[C@H](O)[C@@H](O)[C@@H]1O` [Trifolirhizin, trifolirhizin]: the IC50 in data set [1] (Homo sapiens, 48 h) is > 100 µg/mL.
